Source: US9376436B2, “2-(pyridin-2yl)-1, 7-diaza-spiro [4.4] nonane-6-one compound as voltage-gated sodium channels modulators” (CONVERGENCE PHARMACEUTICALS LIMITED, priority 2011, dated 2016)
Where a name gives a salt, the structure may show the parent alone. Read-outs that look alike come from different tables or passages of the source.

Biological target: T1, hNaV1.7 (Homo sapiens, UniProt Q15858)
T1 construct: expressed in transfected cells; host or cells: HEK293
Experiment: QPatch NaV1.7 assay (whole-cell patch clamp, QPatch16x)
Format: cell-based
Conditions: HEK293-hNaV1.7 cells
Method: The compounds of the invention were tested in a QPatch NaV1.7 assay.
HEK293-hNaV1.7 cells were grown in DMEM-F12+10% FBS culture media at 37° C. At a confluency of 50-70% cells were dissociated from culture flasks & triturated to ensure unicellular cell suspension; cell density was measured & adjusted to 2-3×10^6 cells/ml. Recordings were obtained using QPatch16x. The external solution was (in mM): NaCl, 128; KCl, 5; MgCl2, 2; CaCl2, 2; Glucose, 30; HEPES, 15; pH 7.3, 305-315 mOsm. Following seal formation and whole-cell access using internal solution (containing in mM: CsF, 135; EGTA/CsOH, 1/5; HEPES 10; NaCl, 10; pH 7.3, 310-320 mOsM), voltage pulse protocols were applied. Initially a steady state inactivation voltage protocol was used to determine the half-maximal voltage for steady state inactivation (V1/2 SSI). Two holding voltages were used to determine test drug inhibition: −90 mV, where most of the channels are in a closed state; and V1/2 SSI, where half of the channels are inactivated. Currents were elicited […] by stepping to a membrane potential of 0 mV for 20 ms. Four-point cumulative concentration responses were derived by determining the peak current amplitude at each concentration of test drug over 120 second application. Curves were fitted with the Hill equation yielding pIC50 values at −90 mV and V1/2 SSI holding potentials.

[1] = holding voltage V1/2 SSI (half of channels inactivated), read-out: QP Nav1.7 SSI vhalf pIC50 (converted)
[2] = holding voltage −90 mV (most channels closed), read-out: QP Nav1.7 −90 mV pIC50 (converted)

T1 sequence (Q15858 whole entry): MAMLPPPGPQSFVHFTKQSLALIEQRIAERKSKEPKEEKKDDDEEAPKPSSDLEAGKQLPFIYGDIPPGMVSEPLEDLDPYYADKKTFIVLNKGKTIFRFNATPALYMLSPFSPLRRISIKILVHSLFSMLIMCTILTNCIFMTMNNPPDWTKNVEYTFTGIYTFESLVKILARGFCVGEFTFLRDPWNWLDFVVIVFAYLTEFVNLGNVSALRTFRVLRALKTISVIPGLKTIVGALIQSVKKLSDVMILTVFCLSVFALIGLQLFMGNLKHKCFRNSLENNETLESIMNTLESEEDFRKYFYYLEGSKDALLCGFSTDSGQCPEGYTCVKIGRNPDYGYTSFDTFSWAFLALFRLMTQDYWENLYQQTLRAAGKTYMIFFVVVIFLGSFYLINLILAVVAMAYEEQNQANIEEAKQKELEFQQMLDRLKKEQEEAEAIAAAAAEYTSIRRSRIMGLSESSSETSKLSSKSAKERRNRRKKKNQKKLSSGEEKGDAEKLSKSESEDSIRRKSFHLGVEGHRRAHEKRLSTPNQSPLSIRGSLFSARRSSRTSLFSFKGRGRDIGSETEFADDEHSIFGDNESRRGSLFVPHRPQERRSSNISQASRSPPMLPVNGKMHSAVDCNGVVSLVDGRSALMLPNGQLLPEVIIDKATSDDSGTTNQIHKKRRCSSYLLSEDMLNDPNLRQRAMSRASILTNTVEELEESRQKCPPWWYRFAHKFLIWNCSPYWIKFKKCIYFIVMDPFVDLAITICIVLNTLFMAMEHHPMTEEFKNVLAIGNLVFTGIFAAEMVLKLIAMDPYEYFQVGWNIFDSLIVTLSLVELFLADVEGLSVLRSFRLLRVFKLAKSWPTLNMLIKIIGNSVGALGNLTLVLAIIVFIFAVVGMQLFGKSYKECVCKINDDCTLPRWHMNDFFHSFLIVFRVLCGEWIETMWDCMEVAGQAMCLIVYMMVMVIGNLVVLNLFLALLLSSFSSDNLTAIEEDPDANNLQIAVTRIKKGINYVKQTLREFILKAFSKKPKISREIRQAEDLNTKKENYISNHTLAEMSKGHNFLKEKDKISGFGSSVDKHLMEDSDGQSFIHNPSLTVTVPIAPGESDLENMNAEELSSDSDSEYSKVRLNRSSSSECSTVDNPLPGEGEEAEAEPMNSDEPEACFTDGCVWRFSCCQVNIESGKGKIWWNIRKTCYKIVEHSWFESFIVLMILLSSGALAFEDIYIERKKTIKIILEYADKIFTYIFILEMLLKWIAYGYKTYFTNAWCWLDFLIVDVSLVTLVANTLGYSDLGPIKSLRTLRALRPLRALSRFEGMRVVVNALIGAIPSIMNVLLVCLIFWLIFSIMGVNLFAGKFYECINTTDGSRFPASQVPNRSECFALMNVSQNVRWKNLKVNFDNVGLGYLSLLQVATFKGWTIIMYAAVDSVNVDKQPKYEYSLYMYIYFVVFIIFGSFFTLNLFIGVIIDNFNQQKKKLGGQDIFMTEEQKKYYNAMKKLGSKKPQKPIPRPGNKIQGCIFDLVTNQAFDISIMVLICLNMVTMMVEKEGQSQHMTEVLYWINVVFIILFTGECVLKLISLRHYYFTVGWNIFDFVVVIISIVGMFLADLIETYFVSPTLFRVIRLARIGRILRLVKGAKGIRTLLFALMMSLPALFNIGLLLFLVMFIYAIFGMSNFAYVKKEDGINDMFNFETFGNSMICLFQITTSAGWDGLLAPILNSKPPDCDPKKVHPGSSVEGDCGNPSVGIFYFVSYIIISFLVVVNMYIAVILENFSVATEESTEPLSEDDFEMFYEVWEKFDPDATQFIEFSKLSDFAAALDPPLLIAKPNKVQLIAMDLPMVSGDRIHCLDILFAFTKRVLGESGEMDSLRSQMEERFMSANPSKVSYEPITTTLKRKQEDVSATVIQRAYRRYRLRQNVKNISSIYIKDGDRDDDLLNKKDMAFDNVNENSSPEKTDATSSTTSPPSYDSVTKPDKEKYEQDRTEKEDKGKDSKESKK

Row | IC50 [1] | IC50 [2] | SMILES
1 | 0.794 µM | 20 µM | O=C1NCC[C@@]12CC[C@@H](c1cc(-c3ccc(C(F)(F)F)cc3)ccn1)N2 [Example 36, (2S,5S)-2-[4-[4-(Trifluoromethyl)phenyl]-2-pyridyl]-1,7-diazaspiro[4.4]nonan-6-one hydrochloride]
2 | 0.794 µM | 25.1 µM | O=C1NCC[C@@]12CC[C@H](c1cc(-c3ccc(C(F)(F)F)cc3)ccn1)N2 [Example 37, (2R,5S)-2-[4-[4-(Trifluoromethyl)phenyl]-2-pyridyl]-1,7-diazaspiro[4.4]nonan-6-one hydrochloride]
3 | 7.94 µM | 63.1 µM | O=C1NCC[C@@]12CC[C@@H](c1cc(-c3ccc(C(F)(F)F)cc3F)ccn1)N2 [Example 38, (2S,5S)-2-[4-[2-Fluoro-4-(trifluoro-methyl)phenyl]-2-pyridyl]-1,7-diazaspiro[4.4]nonan-6-one hydrochloride]
4 | 20 µM | 79.4 µM | O=C1NCC[C@@]12CC[C@H](c1cc(-c3ccc(C(F)(F)F)cc3F)ccn1)N2 [Example 39, (2R,5S)-2-[4-[2-Fluoro-4-(trifluoro-methyl)phenyl]-2-pyridyl]-1,7-diazaspiro[4.4]nonan-6-one hydrochloride]
5 | 1.58 µM | 50.1 µM | Cc1cnc([C@@H]2CC[C@@]3(CCN(C)C3=O)N2)cc1-c1ccc(C(F)(F)F)cc1 [Example 40, (2S,5S)-7-Methyl-2-[5-methyl-4-[4-(trifluoromethyl)phenyl]-2-pyridyl]-1,7-diazaspiro[4.4]nonan-6-one hydrochloride]
6 | 2 µM | 25.1 µM | Cc1cnc([C@H]2CC[C@@]3(CCN(C)C3=O)N2)cc1-c1ccc(C(F)(F)F)cc1 [Example 41, (2R,5S)-7-Methyl-2-[5-methyl-4-[4-(trifluoromethyl)phenyl]-2-pyridyl]-1,7-diazaspiro[4.4]nonan-6-one hydrochloride]
7 | 2 µM | 25.1 µM | Cc1cnc([C@H]2CC[C@]3(CCN(C)C3=O)N2)cc1-c1ccc(C(F)(F)F)cc1 [Example 42, (2R,5R)-7-Methyl-2-[5-methyl-4-[4-(trifluoromethyl)phenyl]-2-pyridyl]-1,7-diazaspiro[4.4]nonan-6-one hydrochloride]
8 | 3.16 µM | 39.8 µM | Cc1cnc([C@@H]2CC[C@]3(CCN(C)C3=O)N2)cc1-c1ccc(C(F)(F)F)cc1 [Example 43, (2S,5R)-7-Methyl-2-[5-methyl-4-[4-(trifluoromethyl)phenyl]-2-pyridyl]-1,7-diazaspiro[4.4]nonan-6-one hydrochloride]
9 | 10 µM | 50.1 µM | CC1(C)C[C@@]2(CC[C@@H](c3cc(-c4ccc(C(F)(F)F)cc4)ccn3)N2)C(=O)N1 [Example 44, (2S,5S)-8,8-Dimethyl-2-[4-[4-(trifluoromethyl)phenyl]-2-pyridyl]-1,7-diazaspiro[4.4]nonan-6-one hydrochloride]
10 | 3.16 µM | 39.8 µM | CC1(C)C[C@@]2(CC[C@H](c3cc(-c4ccc(C(F)(F)F)cc4)ccn3)N2)C(=O)N1 [Example 45, (2R,5S)-8,8-Dimethyl-2-[4-[4-(trifluoromethyl)phenyl]-2-pyridyl]-1,7-diazaspiro[4.4]nonan-6-one hydrochloride]
11 | 0.794 µM | 10 µM | CC1(C)C[C@]2(CC[C@H](c3cc(-c4ccc(C(F)(F)F)cc4)ccn3)N2)C(=O)N1 [Example 46, (2R,5R)-8,8-Dimethyl-2-[4-[4-(trifluoromethyl)phenyl]-2-pyridyl]-1,7-diazaspiro[4.4]nonan-6-one hydrochloride]
12 | 12.6 µM | 31.6 µM | CC1(C)C[C@]2(CC[C@@H](c3cc(-c4ccc(C(F)(F)F)cc4)ccn3)N2)C(=O)N1 [Example 47, (2S,5R)-8,8-Dimethyl-2-[4-[4-(trifluoromethyl)phenyl]-2-pyridyl]-1,7-diazaspiro[4.4]nonan-6-one hydrochloride]
13 | 2 µM | 25.1 µM | O=C1NCCC[C@@]12CC[C@@H](c1cc(-c3ccc(C(F)(F)F)cc3)ccn1)N2 [Example 48, (2S,5R)-2-[4-(4-Trifluoromethyl-phenyl)-pyridin-2-yl]-1,7-diaza-spiro[4.5]decan-6-one hydrochloride]
14 | 3.98 µM | 50.1 µM | O=C1NCCC[C@@]12CC[C@H](c1cc(-c3ccc(C(F)(F)F)cc3)ccn1)N2 [Example 49, (2R,5R)-2-[4-(4-Trifluoromethyl-phenyl)-pyridin-2-yl]-1,7-diaza-spiro[4.5]decan-6-one hydrochloride]
15 | 0.251 µM | 2.51 µM | O=C1NCCC[C@]12CC[C@H](c1cc(-c3ccc(C(F)(F)F)cc3)ccn1)N2 [Example 50, (2R,5S)-2-[4-(4-Trifluoromethyl-phenyl)-pyridin-2-yl]-1,7-diaza-spiro[4.5]decan-6-one hydrochloride]
16 | 5.01 µM | 25.1 µM | O=C1NCCC[C@]12CC[C@@H](c1cc(-c3ccc(C(F)(F)F)cc3)ccn1)N2 [Example 51, (25,5S)-2-[4-(4-Trifluoromethyl-phenyl)-pyridin-2-yl]-1,7-diaza-spiro[4.5]decan-6-one hydrochloride]
17 | 6.31 µM | 25.1 µM | CN1CC[C@@]2(CC[C@H](c3cc(-c4ccc(C(F)(F)F)cc4)ccn3)N2)C1=O [Example 52, (2R,5S)-7-Methyl-2-[4-(4-trifluoromethyl-phenyl)-pyridin-2-yl]-1,7-diaza-spiro[4.4]nonan-6-one hydrochloride]
18 | 39.8 µM | 100 µM | CN1CC[C@@]2(CC[C@@H](c3cc(-c4ccc(C(F)(F)F)cc4)ccn3)N2)C1=O [Example 53, (2S,5S)-7-Methyl-2-[4-(4-trifluoromethyl-phenyl)-pyridin-2-yl]-1,7-diaza-spiro[4.4]nonan-6-one hydrochloride]
19 | 39.8 µM | 63.1 µM | CN1CC[C@]2(CC[C@@H](c3cc(-c4ccc(C(F)(F)F)cc4)ccn3)N2)C1=O [Example 54, (2S,5R)-7-Methyl-2-[4-(4-trifluoromethyl-phenyl)-pyridin-2-yl]-1,7-diaza-spiro[4.4]nonan-6-one hydrochloride]
20 | 20 µM | 100 µM | CN1CC[C@]2(CC[C@H](c3cc(-c4ccc(C(F)(F)F)cc4)ccn3)N2)C1=O [Example 55, (2R,5R)-7-Methyl-2-[4-(4-trifluoromethyl-phenyl)-pyridin-2-yl]-1,7-diaza-spiro[4.4]nonan-6-one hydrochloride]
21 | 10 µM | 79.4 µM | Cc1cc(-c2ccc(F)cc2)cc([C@@H]2CC[C@]3(CCN(C)C3=O)N2)n1 [Example 56, (2S,5R)-2-[4-(4-Fluorophenyl)-6-methyl-2-pyridyl]-7-methyl-1,7-diazaspiro[4.4]nonan-6-one hydrochloride]
22 | 3.98 µM | 79.4 µM | Cc1cc(-c2ccc(F)cc2)cc([C@H]2CC[C@@]3(CCN(C)C3=O)N2)n1 [Example 57, (2R,5S)-2-[4-(4-Fluorophenyl)-6-methyl-2-pyridyl]-7-methyl-1,7-diazaspiro[4.4]nonan-6-one hydrochloride]
23 | 1.26 µM | 63.1 µM | CN1CC[C@@]2(CC[C@H](c3cc(-c4ccc(C(F)(F)F)cc4)c(F)cn3)N2)C1=O [Example 58, (2R,5S)-2-[5-Fluoro-4-[4-(trifluoromethyl)phenyl]-2-pyridyl]-7-methyl-1,7-diazaspiro[4.4]nonan-6-one hydrochloride]
